Starred links: 1 amine or outer side, 2 acyl side, 3 side chain; linkers in the order of their positions; H or OH if unused. Positions of bridges follow the written chain, without caps; N, C: chain ends. Non-standard residues stand in square brackets, D forms with d. Chains are numbered I, II in the order given. No end group written: not given here. *: point of attachment. X4 = O=C(CCOCCOCCOCCOCCOCCn1cc(CCC(=O)[*:2])nn1)NCCCN(CCCNC(=O)CCOCCOCCOCCOCCOCCn1cc(CCC(=O)[*:3])nn1)CC(=O)[*:1]; X1 = O=C(CCOCCOCCOCCN(CCOCCOCCOCCn1cc(CCC(=O)[*:2])nn1)CCOCCOCCOCCn1cc(CCC(=O)[*:3])nn1)[*:1]; X2 = O=C(CCSCCC(=O)[*:1])N1CN(C(=O)CC[*:2])CN(C(=O)CC[*:3])C1; TATA = O=C(CC[*:1])N1CN(C(=O)CC[*:2])CN(C(=O)CC[*:3])C1; Dip = N[C@H](C(=O)O)C(c1ccccc1)c1ccccc1; 1Nal = N[C@@H](Cc1cccc2ccccc12)C(=O)O; d1Nal = N[C@H](Cc1cccc2ccccc12)C(=O)O; Hyp = O=C(O)[C@@H]1C[C@@H](O)CN1; hArg = N=C(N)NCCCC[C@H](N)C(=O)O; tBuAla = CC(C)(C)C[C@H](N)C(=O)O; Aad = N[C@@H](CCCC(=O)O)C(=O)O; Cba = N[C@@H](CC1CCC1)C(=O)O; dNle = CCCC[C@@H](N)C(=O)O; Nle = CCCC[C@H](N)C(=O)O; Pent4ynoyl = C#CCCC(=O)*; Mpa = O=C(O)CCS
Biological target: CD137 (Homo sapiens, UniProt Q07011)
Experiment: CD137 reporter assay (Promega, Jurkat cells) in co-culture with EphA2-expressing tumor cells (A549, PC3, HT29)
Format: cell-based
Parameters: host or cells: Jurkat reporter cells
Settings: for fold induction / Emax (fold induction over background): CD137 reporter coculture assay with PC3 tumor cells; for fold induction: read-out: Emax (fold induction over background); for EC50: EC50, CD137 reporter coculture assay with PC3 tumor cells
Procedure: Culture medium, referred to as R1 media, is prepared by adding 1% FBS to RPMI-1640 (component of Promega kit CS196005). Serial dilutions of test articles in R1 are prepared in a sterile 96 well-plate. Add 25 μL per well of test articles or R1 (as a background control) to designated wells in a white cell culture plate. Tumor cells* are harvested and resuspended at a concentration of 400,000 cells/mL in R1 media. Twenty five (25) μL/well of tumor cells are added to the white cell culture plate. Jurkat cells (Promega kit CS196005, 0.5 mL) are thawed in the water bath and then added to 5 ml pre-warmed R1 media. Twenty five (25) μL/well of Jurkat cells are then added to the white cell culture plate. Incubate the cells and test articles for 6 h at 37° C., 5% CO2. At the end of 6 h, add 75 μL/well Bio-Glo™ reagent (Promega) and incubate for 10 min before reading luminescence in a plate reader (Clariostar, BMG). The fold change relative to cells alone (Jurkat cells+Cell line used in co-culture) is calculated and plotted in GraphPad Prism as log(agonist) vs response to determine EC50 (nM) and Fold Induction over background (Max).
The tumor cell types used in co-culture for EphA2 are A549, PC3 and HT29. The tumor cell type used in co-culture for PD-L1 is RKO.

CD137, sequence (Q07011 24-255): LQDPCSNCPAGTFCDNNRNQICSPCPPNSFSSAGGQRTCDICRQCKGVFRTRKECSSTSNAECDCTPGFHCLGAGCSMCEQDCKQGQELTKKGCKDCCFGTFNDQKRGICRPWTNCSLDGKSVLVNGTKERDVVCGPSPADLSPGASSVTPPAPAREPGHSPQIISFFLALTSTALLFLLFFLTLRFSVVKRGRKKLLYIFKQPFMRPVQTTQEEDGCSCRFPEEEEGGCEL

“BCY14335: EphA2:CD137 1:2; BCY14327 (Lys 8) + 2x BCY8928; linker N-(acid-PEG3)-N-bis(PEG3-azide) (peptide 1 {Palmitoyl‑Glu‑LysN3-Pent4ynoyl}-A[hArg]DC[Hyp]LVNPLCLKP[dD]W[hArg]C; peptide 2 Ac-C[tBuAla]PE[dK](Pent4ynoyl)PYCFADPY[Nle]CA; linker I:4-I:11-I:18, II:1-II:8-II:15 via TATA (inferred); not fully specified (some residues); also: 1:2 complex: linker bis(PEG3-azide) clicked to dLys(PYA)4 of two BCY8928 copies, one copy shown)” was tested, and the “Fold Improvement over BCY9173, EC50 (nM)” value (co-culture with PC3) was 7.14 fold and the “Fold Improvement over Emax” value (co-culture with PC3, versus BCY9173) was 0.94 fold.
“I: ADC[Hyp]LVNPLCLEP[dD]WTC-NH2 / II: Ac-C[tBuAla]PE[dK]PYCFADPY[Nle]CA-NH2 / III: Ac-C[tBuAla]PE[dK]PYCFADPY[Nle]CA-NH2 (linker I:3-I:10-I:17, II:1-II:8-II:15, III:1-III:8-III:15 via TATA; linker I:N-II:5-III:5 via X1) [BCY13282]” gave a fold induction of 40.
Substance “I: A[hArg]DC[Hyp]LVNPLCLEP[dA]WTC-NH2 / II: Ac-C[tBuAla]PE[dK]PYCFADPY[Nle]CA-NH2 / III: Ac-C[tBuAla]PE[dK]PYCFADPY[Nle]CA-NH2 (linker I:4-I:11-I:18, II:1-II:8-II:15, III:1-III:8-III:15 via TATA; linker I:N-II:5-III:5 via X1) [BCY13046]” has a fold induction of 57.6 and an EC50 of 170 pM.
For “I: A[hArg]DC[Hyp]LVNPLCLEP[dD]WTC-NH2 / II: Ac-C[tBuAla]PE[dK]PYCFADPY[Nle]CA-NH2 / III: Ac-C[tBuAla]PE[dK]PYCFADPY[Nle]CA-NH2 (linker I:4-I:11-I:18, II:1-II:8-II:15, III:1-III:8-III:15 via TATA; linker I:N-II:5-III:5 via X1) [BCY13044]”, the fold induction was 49.5 and the EC50 was 210 pM.
With “I: A[hArg]DC[Hyp]LVNPLCLEP[dD]WTC-NH2 / II: [Mpa][tBuAla]EE[dK]PYCFADPY[Nle]C-NH2 / III: [tBuAla]EE[dK]PYCFADPY[Nle]C-NH2 (linker I:4-I:11-I:18, II:1-II:8-II:15 via TATA; linker I:N-II:5-III:4 via X1; linker III:N-III:7-III:14 via X2) [BCY13140]” the “Emax (fold induction over background)” value was 46.70 and the EC50 was 120 pM.
“I: A[hArg]DC[Hyp]LVNPLCLEP[dD]WTC-NH2 / II: [Mpa][tBuAla]PE[dK]PYCFADPY[Nle]C-NH2 / III: [tBuAla]PE[dK]PYCFADPY[Nle]C-NH2 (linker I:4-I:11-I:18, II:1-II:8-II:15 via TATA; linker I:N-II:5-III:4 via X1; linker III:N-III:7-III:14 via X2) [BCY13138]” showed a fold induction of 32.6 and an EC50 of 170 pM.
In the case of “I: A[hArg]DC[Hyp]LVNPLCLEP[dD]WTC[dA]-NH2 / II: Ac-C[tBuAla]PE[dK]PYCFADPY[Nle]CA-NH2 / III: Ac-C[tBuAla]PE[dK]PYCFADPY[Nle]CA-NH2 (linker I:4-I:11-I:18, II:1-II:8-II:15, III:1-III:8-III:15 via TATA; linker I:N-II:5-III:5 via X1) [BCY13045]”, the “Emax (fold induction over background)” value is reported as 49.87 and the EC50 is reported as 230 pM.
With “I: A[hArg]DC[Hyp]LVNPLCLEP[dD]W[hArg]C-NH2 / II: Ac-C[tBuAla]PE[dK]PYCFADPY[Nle]CA-NH2 / III: Ac-C[tBuAla]PE[dK]PYCFADPY[Nle]CA-NH2 (linker I:4-I:11-I:18, II:1-II:8-II:15, III:1-III:8-III:15 via TATA; linker I:N-II:5-III:5 via X1) [BCY13042]” the fold induction was 58.3 and the EC50 was 80 pM.
In the case of “I: A[hArg]DC[Hyp]LVNPLCLHP[d1Nal]W[hArg]C-NH2 / II: Ac-C[tBuAla]PE[dK]PYCFADPY[Nle]CA-NH2 / III: Ac-C[tBuAla]PE[dK]PYCFADPY[Nle]CA-NH2 (linker I:4-I:11-I:18, II:1-II:8-II:15, III:1-III:8-III:15 via TATA; linker I:N-II:5-III:5 via X1) [BCY13270]”, the fold induction is reported as 42.5 and the EC50 is reported as 100 pM.
With “I: A[hArg]DC[Hyp]LVNPLCLHP[dD]WTC-NH2 / II: Ac-C[tBuAla]PE[dK]PYCFADPY[Nle]CA-NH2 / III: Ac-C[tBuAla]PE[dK]PYCFADPY[Nle]CA-NH2 (linker I:4-I:11-I:18, II:1-II:8-II:15, III:1-III:8-III:15 via TATA; linker I:N-II:5-III:5 via X1) [BCY13043]” the fold induction was 52.7 and the EC50 was 110 pM.
In the case of “I: A[hArg]DC[Hyp]LVNPLCLHP[dD]W[hArg]C-NH2 / II: Ac-C[tBuAla]PE[dK]PYCFADPY[Nle]CA-NH2 / III: Ac-C[tBuAla]PE[dK]PYCFADPY[Nle]CA-NH2 (linker I:4-I:11-I:18, II:1-II:8-II:15, III:1-III:8-III:15 via TATA; linker I:N-II:5-III:5 via X4) [BCY12979]”, the “Emax (fold induction over background)” value is reported as 71.60 and the EC50 is reported as 80 pM.
For “I: A[hArg]DC[Hyp]LVNPLCLHP[dD]W[hArg]C-NH2 / II: [Mpa][tBuAla]EE[dK]PYCFADPY[Nle]C-NH2 / III: [tBuAla]EE[dK]PYCFADPY[Nle]C-NH2 (linker I:4-I:11-I:18, II:1-II:8-II:15 via TATA; linker I:N-II:5-III:4 via X1; linker III:N-III:7-III:14 via X2) [BCY13139]”, the “Emax (fold induction over background)” value was 43.75 and the EC50 was 160 pM.
With “I: A[hArg]DC[Hyp]LVNPLCLHP[dE]W[hArg]C-NH2 / II: Ac-C[tBuAla]PE[dK]PYCFADPY[Nle]CA-NH2 / III: Ac-C[tBuAla]PE[dK]PYCFADPY[Nle]CA-NH2 (linker I:4-I:11-I:18, II:1-II:8-II:15, III:1-III:8-III:15 via TATA; linker I:N-II:5-III:5 via X1) [BCY12977]” the fold induction was 67.2 and the EC50 was 80 pM.
In the case of “I: A[hArg]DC[Hyp]LVNPLCLHP[dNle]W[hArg]C-NH2 / II: Ac-C[tBuAla]PE[dK]PYCFADPY[Nle]CA-NH2 / III: Ac-C[tBuAla]PE[dK]PYCFADPY[Nle]CA-NH2 (linker I:4-I:11-I:18, II:1-II:8-II:15, III:1-III:8-III:15 via TATA; linker I:N-II:5-III:5 via X1) [BCY13288]”, the fold induction is reported as 43.3 and the EC50 is reported as 90 pM.
For “I: A[hArg]DC[Hyp]LVNPLCL[1Nal]P[dD]W[hArg]C-NH2 / II: Ac-C[tBuAla]PE[dK]PYCFADPY[Nle]CA-NH2 / III: Ac-C[tBuAla]PE[dK]PYCFADPY[Nle]CA-NH2 (linker I:4-I:11-I:18, II:1-II:8-II:15, III:1-III:8-III:15 via TATA; linker I:N-II:5-III:5 via X1) [BCY13271]”, the “Emax (fold induction over background)” value was 44.20 and the EC50 was 90 pM.
For “I: A[hArg]DC[Hyp]LVNPLCL[Aad]P[dD]W[hArg]C-NH2 / II: Ac-C[tBuAla]PE[dK]PYCFADPY[Nle]CA-NH2 / III: Ac-C[tBuAla]PE[dK]PYCFADPY[Nle]CA-NH2 (linker I:4-I:11-I:18, II:1-II:8-II:15, III:1-III:8-III:15 via TATA; linker I:N-II:5-III:5 via X1) [BCY13286]”, the fold induction was 34.1 and the EC50 was 110 pM.
“I: A[hArg]DC[Hyp]LVNPLCL[Dip]P[dD]W[hArg]C-NH2 / II: Ac-C[tBuAla]PE[dK]PYCFADPY[Nle]CA-NH2 / III: Ac-C[tBuAla]PE[dK]PYCFADPY[Nle]CA-NH2 (linker I:4-I:11-I:18, II:1-II:8-II:15, III:1-III:8-III:15 via TATA; linker I:N-II:5-III:5 via X1) [BCY13054]” was tested, and the “Emax (fold induction over background)” value was 36.53 and the EC50 was 70 pM.
Work on “I: A[hArg]DC[Hyp]LVNPLCL[Nle]P[dD]W[hArg]C-NH2 / II: Ac-C[tBuAla]PE[dK]PYCFADPY[Nle]CA-NH2 / III: Ac-C[tBuAla]PE[dK]PYCFADPY[Nle]CA-NH2 (linker I:4-I:11-I:18, II:1-II:8-II:15, III:1-III:8-III:15 via TATA; linker I:N-II:5-III:5 via X1) [BCY13289]” yielded a fold induction of 45.8 and an EC50 of 80 pM.
With “I: A[hArg]DC[Hyp]LVNPLC[Aad]HP[dD]W[hArg]C-NH2 / II: Ac-C[tBuAla]PE[dK]PYCFADPY[Nle]CA-NH2 / III: Ac-C[tBuAla]PE[dK]PYCFADPY[Nle]CA-NH2 (linker I:4-I:11-I:18, II:1-II:8-II:15, III:1-III:8-III:15 via TATA; linker I:N-II:5-III:5 via X1) [BCY13285]” the “Emax (fold induction over background)” value was 36.53 and the EC50 was 260 pM.
“I: A[hArg]DC[Hyp][Aad]VNPLCLHP[dD]W[hArg]C-NH2 / II: Ac-C[tBuAla]PE[dK]PYCFADPY[Nle]CA-NH2 / III: Ac-C[tBuAla]PE[dK]PYCFADPY[Nle]CA-NH2 (linker I:4-I:11-I:18, II:1-II:8-II:15, III:1-III:8-III:15 via TATA; linker I:N-II:5-III:5 via X1) [BCY13284]” was tested, and the fold induction was 34.7 and the EC50 was 250 pM.
In the case of “I: A[hArg]DC[Hyp][Cba]VNPLCLEP[dD]WTC-NH2 / II: Ac-C[tBuAla]PE[dK]PYCFADPY[Nle]CA-NH2 / III: Ac-C[tBuAla]PE[dK]PYCFADPY[Nle]CA-NH2 (linker I:4-I:11-I:18, II:1-II:8-II:15, III:1-III:8-III:15 via TATA; linker I:N-II:5-III:5 via X1) [BCY13051]”, the “Emax (fold induction over background)” value is reported as 37.05 and the EC50 is reported as 210 pM.
